The values that follow come from ChEMBL document CHEMBL1133253, “Improved antibacterial activities of coumarin antibiotics bearing 5',5'-dialkylnoviose: biological activity of RU79115” (Bioorg Med Chem Lett, 2000).

The test system of assay [1] is Staphylococcus aureus. The assay can be described thus: Tested for in vitro antibacterial activity against Staphylococcus aureus 011 HT3 phenotype. Type of assay: functional.
In assay [2] the test system is Staphylococcus aureus. The experiment in a line: Tested for in vitro antibacterial activity against Staphylococcus aureus 011 HT1 novobiocin resistance phenotype. Type of assay: functional.
For assay [3], the system named is Streptococcus pyogenes. The assay can be described thus: Tested for in vitro antibacterial activity against Streptococcus pyogenes O2A1UC1 phenotype. Type of assay: functional.
Assay [4] relates to Staphylococcus aureus. The assay can be described thus: IC50 was determined for gyrase B of Staphylococcus aureus against novobiocin (0.5 mg/mL) as reference; IC50nov/IC50comp.
Assay [5] relates to Enterococcus faecium. The experiment in a line: Tested for in vitro antibacterial activity against Enterococcus faecium 02D31P2 vancomycin teicoplanin erythromycin resistance phenotype. Type of assay: functional.
Assay [6] concerns Staphylococcus epidermidis. The experiment in a line: Tested for in vitro antibacterial activity against Staphylococcus epidermidis 012GO42 oxacillin resistance phenotype. The class given is functional.
Assay [7] has as its system Staphylococcus aureus. The assay can be described thus: Tested for in vitro antibacterial activity against Staphylococcus aureus 011 GO64 ofloxacin oxacillin erythromycin resistance phenotype. Type of assay: functional.

≈ marks a conversion by molar mass, not a printed value.

As to `C#CCONC(=O)O[C@H]1[C@@H](O)[C@H](Oc2ccc3c(O)c(/C(C)=N/OC)c(=O)oc3c2C)O[C@@](C)(CC)[C@@H]1OC`, the MIC is below 0.04 µg/mL in assay [1]; 0.3 µg/mL (≈ 0.547 µM) in assay [2]; 0.08 µg/mL (≈ 0.146 µM) in assay [3]; 0.15 µg/mL (≈ 0.273 µM) in assay [5]; below 0.04 µg/mL in assay [6]. Moreover, the Ratio in assay [4] was 11.1.
With `C#CCONC(=O)O[C@H]1[C@@H](O)[C@H](Oc2ccc3c(O)c(/C(C)=N/OC)c(=O)oc3c2C)OC(CC)(CC)[C@@H]1OC`, the MIC in assay [7] was 0.08 µg/mL (≈ 0.142 µM); in assay [1], below 0.04 µg/mL; in assay [2], 2.5 µg/mL (≈ 4.44 µM); in assay [3], 0.6 µg/mL (≈ 1.07 µM); in assay [5], 0.6 µg/mL (≈ 1.07 µM); in assay [6] it was below 0.04 µg/mL. The Ratio in assay [4] turned out to be 4.
Regarding `C#CCONC(=O)O[C@H]1[C@@H](O)[C@H](Oc2ccc3c(=O)c(/C(C)=N/OC)c(O)oc3c2C)O[C@@](C)(C=C)[C@@H]1OC`, the MIC is 0.3 µg/mL (≈ 0.549 µM) in assay [7]; below 0.04 µg/mL in assay [1]; 2.5 µg/mL (≈ 4.57 µM) in assay [2]; 1.2 µg/mL (≈ 2.2 µM) in assay [3]; 1.2 µg/mL (≈ 2.2 µM) in assay [5]; 0.15 µg/mL (≈ 0.274 µM) in assay [6]. The Ratio in assay [4] came out at 2.6.
Turning to `C#CCONC(=O)O[C@H]1[C@@H](O)[C@H](Oc2ccc3c(=O)c(/C(C)=N/OC)c(O)oc3c2C)O[C@@](C)(CC=C)[C@@H]1OC`, the MIC in assay [1] was below 0.04 µg/mL; in assay [2], 1.2 µg/mL (≈ 2.14 µM); in assay [3], 0.3 µg/mL (≈ 0.535 µM); in assay [5], 0.6 µg/mL (≈ 1.07 µM); in assay [6], below 0.04 µg/mL. Moreover, in assay [4], the Ratio is 2.6.
`CO[C@@H]1[C@@H](OC(N)=O)[C@@H](O)[C@H](Oc2ccc3c(O)c(NC(=O)c4ccc(O)c(CC=C(C)C)c4)c(=O)oc3c2C)OC1(C)C` [NOVOBIOCIN]: the minimal inhibitory concentration (MIC) is below 0.04 µg/mL in assay [1]; 10 µg/mL (≈ 16.3 µM) in assay [2]; 0.3 µg/mL (≈ 0.49 µM) in assay [3]; 0.6 µg/mL (≈ 0.979 µM) in assay [5]; below 0.04 µg/mL in assay [6]. Besides, the Ratio in assay [4] came out at 1.

Broadly, the MIC is the lowest concentration that inhibits growth of the organism. Read a high MIC as weaker potency.
